# Results reported in patent publication US9034825B2, “Treatment of myocardial injury with humanin analogs” (Albert Einstein College of Medicine of Yeshiva University, priority 2007, dated 2015).
# Where no end group is shown, it is not given here.
# Experiments:
# Sprague-Dawley rats [1] = assay: ICV infusion of IGF-1, IGFBP-3 or NLS mutant with basal and hyperinsulinemic clamp; format: in vivo, rat; conditions: for Glycogen synthesis, Basal / Glycolysis, Basal / HGP, Basal: basal period; for GIR, Clamp: hyperinsulinemic clamp 3 mU/kg/min; for FFA: last 60 min; for whole body glucose disposal / peripheral glucose uptake (Rd) compared to controls: final 60 min; for infused human peptide in the rat periphery: after ICV infusion
# Source text: Young (3 mo old, n=6 in each group), male Sprague-Dawley rats (Charles River Laboratories, Wilmington, Mass.) were used for this study. Rats were housed in individual cages and were subjected to a standard light (6:00 AM to 6:00 PM)—dark (6:00 PM to 6:00 AM) cycle. All rats were fed ad libitum using regular rat chow that consisted of 64% carbohydrate, 30% protein, and 6% fat with a physiological fuel value of 3.3-kcal/g chow. In the rats that received ICV infusions, 2 to 4 weeks before the in vivo study, the rats were anesthetized by inhalation of isoflurane and a cannula was placed ICV in the third ventricle for infusions of IGF-1, IGFBP-3 or IGFBP-3 mutant or artificial cerebrospinal fluid (aCSF), as previously described (Muzumdar et al., 2003) (FIG. 1). Briefly, a 26-gauge stainless steel guide cannula (Plastics One, Roanoke, Va.) was chronically implanted into the third ventricles using the following coordinates from bregma: anterior-posterior; +0.2 mm dorsal-ventral; −9.0 mm medial-lateral; 0.0 directly on the mid-sagittal suture, followed by a 28-gauge dummy cannula, inserted to prevent clogging of the guide cannula. The implant was secured to the skull with Caulk Grip dental cement, and the skin was closed over the implant using wound clips. The recovery of rats from the surgical stress was monitored with daily weight, food intake, and movement.
# Upon recovery of body weight, usually a week, indwelling catheters were placed in the right internal jugular vein and in the left carotid artery (Muzumdar et al., 2003). The venous catheter was extended to the level of the right atrium, and the arterial catheter was advanced to the level of the aortic arch. Recovery was continued until body weight was within 3% of the pre-operative weight (˜4-6 days). In the rats that received peripheral IGFBP-3, only the vascular catheters were placed.
# Studies were performed in unrestrained rats using the insulin clamp technique, in combination with high performance liquid chromatography-purified [3-^3H]glucose and [U-^14C]lactate infusions, as described previously (Liu et al., 1998). Food was removed for ˜5 h before the in vivo protocol. All studies lasted 360 min and included a 120-min equilibration period, a 120-min basal period for assessment of the basal glucose turnover, and a 120-min hyperinsulinemic clamp period. All rats received ICV infusions (bolus followed by continuous ICV infusions of IGF-1, IGFBP-3, IGFBP-3 mutant or aCSF, depending on the group) over the entire 6 hours of the study. At the beginning of the basal period and 120 min before starting the glucose/insulin infusions, a primed-continuous infusion of high performance liquid chromatography-purified [3-^3H]glucose (NEN Life Science Products, Boston, Mass.; 20 μCi of bolus, 0.2 μCi/min) was initiated and maintained throughout the remaining 4 h of the study. In the final 2 hours of the study, the rats were subjected to hyperinsulinemic clamp. The protocol followed during the insulin clamp study was similar to that previously described (Liu et al., 1998). Briefly, a primed-continuous infusion of regular insulin (3 milliunits/kg·min) was administered, and a variable infusion of a 25% glucose solution was started and periodically adjusted to clamp the plasma glucose concentration at 7-8 mM. To prevent endogenous insulin secretion and in order to control for possible effects of ICV infusions on the endocrine pancreas, somatostatin (1.5 μg/kg·min) was also infused in all the groups. [U-^14C]Lactate (5 μCi of bolus/0.25 μCi/min) was infused during the last 10 min of the study.
# A bolus of hIGF-1 (0.3 mcg, a gift from Tercica, South San Francisco) was followed by a continuous infusion over 6 hours (total dose of 1 mcg, 0.06 μg/kg/hr).
# A bolus of non glycosylated hIGFBP-3 (1.25 μg, generously provided by Celtrix, Mountain View Calif.) was followed by a continuous infusion over 6 hours (total dose of 5.25 mcg, 0.26 μg/kg/hr). […]
# PEPCK mRNA in the liver = assay: Hepatic PEPCK mRNA by qRT-PCR at end of clamp after ICV infusion; format: in vivo, rat; conditions: ICV infusion for 6 h, end of clamp (Example 1)
# Method: (§1) Total RNA was extracted following Clontech's protocol. First-stranded cDNA was synthesized from 1 μg of total RNA using Superscript III (Gibco, Gaithersburg, Md.). Hepatic glucose-6-phosphatase (Glc-6-Pase) and phosphoenolpyruvate carboxykinase (PEPCK) mRNA abundance were assessed by qRT-PCR as described previously (Buettner et al., 2005). Quantification of these peptides and their copy number was normalized for GAPDH and 18S to correct for loading irregularities. The data presented are those normalized by GAPDH.
# [2] = test system: Glc-6-Pase mRNA in the liver; assay: Hepatic Glc-6-Pase mRNA by qRT-PCR at end of clamp after ICV infusion; format: in vivo, rat
# Method: as §1
# NIT cells = assay: Survival, STAT-3 and ERK activation in NIT cells; format: cell-based
# Source text: Z-humanin, […] (SEQ ID NO:19).
# IGFBP-3 = IGFBP-3 (Homo sapiens, UniProt P17936); assay: Dot blots probed with radiolabeled IGFBP-3; format: binding; conditions: FIG. 17A
# Method: For acute signaling studies, rats were injected ICV with either aCSF, 20 μg of HN or F6A (dissolved in aCSF) over 5 min, and sacrificed 30 min later. Tissue sample were obtained from mediobasal hypothalamus, liver and muscle. Samples were also obtained from these tissues at the end of the clamp and western blot analysis was performed as described previously (Muzumdar et al. 2003) The blots were scanned using the LI-COR Odyssey (LI-COR, Lincoln, Nebr., USA) and quantified using Odyssey 2.0 software based on direct fluorescence measurement. Dot blots were performed by blotting 50 ng of humanin, HN-analogues, and IGF on nitrocellulose, incubating with 125-I-labeled-IGFBP-3, autoradiography and scanning.
# normal MEFs = assay: Apoptosis ELISA in normal mouse embryonic fibroblasts; format: cell-based; conditions: 24 hours, 100 nM of peptides
# Method: (§2) Mouse embryonic fibroblasts derived from normal and IGFBP3 KO mice were used to test the effects of humanin and its analogues on survival. Apoptosis ELISA was used as an output measure and cells were treated for 24 hours with 100 nM of peptides. […] Thus, the HNGF6A humanin analogue has non-obvious properties that are different from previously described humanin derivatives and has increased potency as a result of its specific molecular alteration leading to reduced IGFBP-3 binding.
# BP3KO MEFs = assay: Apoptosis ELISA in IGFBP3 KO mouse embryonic fibroblasts; format: cell-based; conditions: 24 hours, 100 nM of peptides
# Method: as §2
# NONcNZO10/LtJ mice = assay: IP glucose tolerance test in NONcNZO10/LtJ mice; format: in vivo, mouse; conditions: IP 25 microgram twice a day for 14 days; IP GTT on D15
# Method: NONcNZO10/LtJ mice were injected IP with HNGF6A 25 microgram twice a day for 14 days. Mice were subjected to 6 hour fast followed by IP GTT on D15. Baseline glucose measurement was taken and the mice were injected IP with 0.5 mg/g glucose. Glucose was sampled at 0 and 90, 120 min.
# Sprague-Dawley rats [3] = assay: Intravenous infusion of humanin or analogs during hyperinsulinemic clamp; format: in vivo, rat; conditions: infused peripherally 0.0375 mg/kg/hr
# [4] = test system: pAKT and pSTAT-3 in hepatocytes; assay: Western blot of Phospho-STAT3 and Phospho-AKT in primary hepatocytes; format: cell-based, rat
# Method: Single-cell suspensions of hepatocytes were obtained from perfusions of Sprague-Dawley rats using the procedure of Berry and Friend (1969) and the perfusion mixture of Leffert et al (1979). Hepatocyte glucose production was estimated after a 24 hr treatment with HN, F6A and saline as described before (Berg et al. 2001). In a separate set of experiment, hepatocytes were lysed, and protein extracted in RIPA lysis buffer at 30, 60 and 360 min post treatment with FIN, F6A and saline. The cell lysates were then subject to western blotting for Phospho-STAT3 (Tyr705), total-STAT3, Phospho-AKT (Ser473), and total-AKT expression (antibodies purchased from Cell Signaling, #9131, #9132, #9271, #9272).
# IGF-1 = IGF-1 (Homo sapiens, UniProt P05019); assay: Western ligand blots with 125I-labeled IGF-1; format: binding; conditions: data not shown
# [5] = test system: mice, myocardial ischemia-reperfusion (I/R) injury; assay: Murine myocardial ischemia-reperfusion injury; format: in vivo, mouse
# Method: The cardioprotective effects of a single-dose of humanin analog HNG treatment were investigated in a murine model of myocardial ischemia-reperfusion (I/R) injury. Mice were subjected to transient myocardial ischemia for a period of 45 min followed by 24 hour reperfusion. HNG (1, 5, 10, 25, 50 and 200 microgram) or vehicle (saline) was administered intraperitoneally one hour before ischemia.
# [6] = test system: memory impairment caused by AD-related insults; conditions: literature (Tajima et al., 2005); cited from earlier work
# [7] = ICV IGF-1 1 μg over 6 h, hyperinsulinemic clamp
# [8] = ICV infusion, hyperinsulinemic clamp
# [9] = ICV IGFBP-3 or NLS mutant over 6 h
# [10] = ICV IGFBP-3 or NLS mutant over 6 h, hyperinsulinemic clamp
# Sequence of IGFBP-3 (P17936 28-291): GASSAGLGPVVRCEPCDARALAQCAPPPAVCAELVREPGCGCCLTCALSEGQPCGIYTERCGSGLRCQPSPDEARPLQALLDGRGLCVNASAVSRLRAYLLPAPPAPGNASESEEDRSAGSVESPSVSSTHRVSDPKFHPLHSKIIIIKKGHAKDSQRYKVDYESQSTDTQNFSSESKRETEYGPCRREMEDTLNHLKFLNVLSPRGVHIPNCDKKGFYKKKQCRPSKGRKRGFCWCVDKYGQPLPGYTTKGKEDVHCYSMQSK
# Sequence of IGF-1 (P05019 49-118): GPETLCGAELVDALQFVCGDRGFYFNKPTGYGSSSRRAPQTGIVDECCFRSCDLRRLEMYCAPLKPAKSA
substance,measurement,setting,value
"IGF-1: hIGF-1, Insulin-like growth factor-1, a gift from Tercica","Glycogen synthesis, Basal",Sprague-Dawley rats [1]; ICV IGF-1 1 μg over 6 h,4.87 ± 0.87
same,"Glycolysis, Basal",Sprague-Dawley rats [1]; ICV IGF-1 1 μg over 6 h,7.02 ± 0.93 mg/kg/min
same,"HGP, Basal",Sprague-Dawley rats [1]; ICV IGF-1 1 μg over 6 h,12.4 ± 1.65 mg/kg/min
same,"Glycogen synthesis, Clamp",Sprague-Dawley rats [1]; [7],8.09 ± 0.67
same,"Glycolysis, Clamp",Sprague-Dawley rats [1]; [7],13.53 ± 1.17 mg/kg/min
same,"HGP, Clamp",Sprague-Dawley rats [1]; [7],2.49 ± 0.54 mg/kg/min
same,"Rd, Clamp",Sprague-Dawley rats [1]; [7],21.62 ± 0.74 mg/kg/min
same,"GIR, Clamp",Sprague-Dawley rats [1]; ICV IGF-1 1 μg over 6 h,19.08 ± 1.55 mg/kg/min
same,FFA,Sprague-Dawley rats [1]; [7],0.23 ± 0.02 mEq/l
same,"IGF-1, human","Sprague-Dawley rats [1]; ICV IGF-1 1 μg over 6 h, peripheral plasma",0 ng/mL
same,improvement in hepatic insulin action (lower HGP than controls),"Sprague-Dawley rats [1]; ICV IGF-1, insulin clamp 3 mU/kg/min",50%
same,gluconeogenesis,Sprague-Dawley rats [1]; [8],0.54 ± 0.2 mg/kg/min
same,glycogenolysis / hepatic glucose fluxes compared to controls,Sprague-Dawley rats [1]; [8],marked decrease
same,insulin induced suppression of FFA compared to controls,Sprague-Dawley rats [1]; [8],significantly higher
same,whole body glucose disposal / peripheral glucose uptake (Rd) compared to controls,Sprague-Dawley rats [1]; [8],tended to augment
same,infused human peptide in the rat periphery,Sprague-Dawley rats [1],No hIGF-1 was detected
same,infused human peptide in the rat periphery,Sprague-Dawley rats [1]; listed as human IGF-1,"No human IGF-1, hIGFBP-3 or NLS-IGFBP-3 was identified"
same,"PEPCK mRNA in the liver, ratio to GAPDH",PEPCK mRNA in the liver,3.4 ±0.6
same,expression of G-6Pase lower than aCSF,"[2]; ICV IGF-1, end of clamp",3 fold
same,"expression of G-6Pase in the liver, ratio to GAPDH","[2]; ICV infusion for 6 h, end of clamp (Example 1)",2.6 ±0.6
MAKRGLNCLPHQVSEIDLSVQKRI (Danio rerio) [Z-humanin],"potency in survival, STAT-3 activation and ERK activation relative to humanin",NIT cells,two-fold greater potency than humanin
MAPRGASCLLLLTGEIDLPVARRA (Humanin analog HNGF6AK21A),"potency in survival, STAT-3 activation and ERK activation relative to humanin",NIT cells,much greater potency than humanin
MAPRGASCLLLLTGEIDLPVKRRA (Humanin analog HNGF6A) [HN with alanine at 6th amino acid],ability to bind IGFBP-3,IGFBP-3,completely devoid of the ability to bind IGFBP-3
same,potency on survival (Apoptosis ELISA),normal MEFs,more potent
same,potency on survival (Apoptosis ELISA),BP3KO MEFs,equal potency
same,glucose levels at 90 and 120 min,NONcNZO10/LtJ mice,significantly lower
same,glucose tolerance,NONcNZO10/LtJ mice,significantly better glucose tolerance
same,glucose infusion rates during clamp,Sprague-Dawley rats [3],significantly higher
same,hepatic glucose production,Sprague-Dawley rats [3]; clamp,suppressive effects
same,peripheral glucose uptake,Sprague-Dawley rats [3]; clamp,significant increase
"MAPRGASCLLLLTSEIDLPVKRRA [F6A HN, maprgascll lltseidlpv krra]",pAKT or pSTAT-3 in hepatocytes,[4],did not elicit significant changes
NLS: non-glycosylated NLS mutant of IGFBP-3 with two amino acid substitutions (K228E and R230G),"Glycogen synthesis, Basal",Sprague-Dawley rats [1]; [9],5.34 ± 0.38
same,"Glycolysis, Basal",Sprague-Dawley rats [1]; [9],7.40 ± 0.71 mg/kg/min
same,"HGP, Basal",Sprague-Dawley rats [1]; [9],13.00 ± 0.72 mg/kg/min
same,"Glycogen synthesis, Clamp",Sprague-Dawley rats [1]; [10],6.93 ± 0.37
same,"Glycolysis, Clamp",Sprague-Dawley rats [1]; [10],10.44 ± 0.96 mg/kg/min
same,"HGP, Clamp",Sprague-Dawley rats [1]; [10],5.37 ± 0.65 mg/kg/min
same,"Rd, Clamp",Sprague-Dawley rats [1]; [10],17.38 ± 1.11 mg/kg/min
same,"GIR, Clamp",Sprague-Dawley rats [1]; [9],11.98 ± 1.14 mg/kg/min
same,FFA,Sprague-Dawley rats [1]; [10],0.35 ± 0.05 mEq/l
same,h-IGFBP-3,"Sprague-Dawley rats [1]; ICV IGFBP-3 or NLS mutant over 6 h, peripheral plasma",0 ng/mL
same,glycogenolysis / hepatic glucose fluxes compared to controls,Sprague-Dawley rats [1]; [8],no changes in glucose fluxes compared to controls
same,whole body glucose disposal / peripheral glucose uptake (Rd) compared to controls,Sprague-Dawley rats [1]; [8],did not result in significant changes
same,infused human peptide in the rat periphery,Sprague-Dawley rats [1],"No human IGF-1, hIGFBP-3 or NLS-IGFBP-3 was identified"
same,binding to 125I-labeled IGF-1,IGF-1,bound equally
maprgfscll lltgeidlpv krra (MAPRGFSCLLLLTGEIDLPVKRRA; Humanin analog S14G (HNG)) [humanin analogue in which serine at position 14 is replaced by glycine],potency on survival (Apoptosis ELISA),BP3KO MEFs,equal potency
same,myocardial injury,"[5]; single dose IP one hour before 45 min ischemia, 24 hour reperfusion",decreased myocardial injury
same,doses at which reduced myocardial infarct was observed,"[5]; single dose IP one hour before ischemia, 1-200 microgram tested",≥ 5 µg
same,potency relative to native HN in rescue activity against AD-related insults in vivo,[6],1000 times
